Test results as given in patent US7964647B2 (Mutual Pharmaceutical Company, Inc., priority 2007, dated 2011).

Columns and labels:
[1] = test system: patients with acute gout flare (acute gouty arthritic attack); assay: Multicenter, randomized, double-blind, placebo-controlled dose comparison study in acute gout flare: efficacy (target joint pain); assay type: in vivo, human
Description: A sufficient number of patients are screened to enroll and randomize 300 patients (100 patients per treatment group) who meet the criteria of the American College of Rheumatology (ACR) for acute arthritis of gout.
Efficacy assessment will be made based on patient and Investigator inputs. Patients will record pain severity and sleep interference on a study diary. The severity of pain for each joint affected by the acute gouty arthritic attack will be rated on an 11-point pain intensity numerical rating scale (PI-NRS) that ranges from 0 (“no pain”) to 10 (“worst possible pain”). […] Investigators will provide clinical assessments in the clinic at all Post-Flare Phase study visits, and at medically necessary intervening visits. For these assessments, each of the patient's joints affected by the acute gouty arthritic attack will be examined and signs and symptoms of inflammation will be rated (erythema [absent, present, or not assessable], swelling [0, “none” to 3, “severe”], and tenderness to touch [0, “none” to 3, “severe”]).
The target joint is identified during data analysis as that joint affected by the acute gout flare with the highest baseline pain score on the patient diary. Ties among maximum joint scores for an individual are resolved by random selection.
The secondary efficacy variables are assessments of magnitude of pain reduction, time to response, time to complete pain relief, and interference with sleep as recorded on patient diaries by the patient. Signs and symptoms of inflammation per Investigator's clinical assessments of the target joint are evaluated. Time to drop out (use of rescue medications) is also evaluated. Investigator global assessment of response to treatment is assessed.
Analyses will also be made on an Evaluable patient population with an Evaluable patient defined as one who, in addition to being included in the PP population, completed the randomized treatment course. The ITT population will be used for the evaluation of safety.
Statistical tests for efficacy analysis are two-tailed with an alpha significance level of 0.05.
The sensitivity to alternate definitions of response (based both on magnitude of reduction from baseline as well as time point) will be evaluated as secondary endpoints. As additional sensitivity analyses, these tests will also be repeated for the PP and Evaluable populations if the sample sizes differ from the overall ITT population by more than 10%.
Change in pain intensity, interference with sleep, time to 50% reduction in pain, and time to complete pain relief will be analyzed as continuous variables using analysis of covariance with study site, treatment group, and site by treatment interaction as independent variables for change in pain intensity and interference with sleep, with baseline score as a covariate. For the Investigator's clinical assessment of inflammation (erythema, swelling, and tenderness to touch) and Investigator's global assessment of response to treatment, the treatment groups will be compared using the Mantel-Haenszel chi-square test stratified on study site.

[2] = Pharmacokinetic study of standard-dose acute gout regimen 4.8 mg over 6 hours (Example 6); conditions: for Cmax / Tmax / half-life: human, in vivo, 4.8 mg
Protocol: This study was a single center, randomized, double-blind, double-dummy pharmacokinetic and exploratory ECG safety study.
Those randomized to moxifloxacin received 1×400 mg tablet.

[3] = standard-dose regimen 4.8 mg over 6 hours, healthy adults, N = 15
[4] = standard-dose regimen 4.8 mg over 6 hours, time after the initial dose, healthy adults, N = 15

Question: What does the source list for COc1cc2c(c(OC)c1OC)-c1ccc(OC)c(=O)cc1[C@@H](NC(C)=O)CC2 [Colchicine, (−)-N-[(7S,12aS)-1,2,3,10-tetramethoxy-9-oxo-5,6,7,9-tetrahydrobenzo[a]heptalen-7-yl]-acetamide]?
Answer: Change from baseline in target joint pain score at 24 hours post first dose, Median ([1]; Late treatment start (after 4 hours), Low dose 1.8 mg): −2.5; Number of responders (>=50% reduction in target joint pain score, no rescue medication) at 24 hours post first dose ([1]; Low dose 1.8 mg over 1 h, N = 74, ITT): 28 (37.8) N (%); Number (%) of patients using rescue medication up to and including the 24-hour post first dose assessment ([1]; Low dose 1.8 mg, N = 74): 23 (31.1) n (%); Patients with >=0% improvement in target joint pain score at 24 hours post first dose ([1]; Low dose 1.8 mg, N = 74): 74 (100.0%); Patients with >=10% improvement in target joint pain score at 24 hours post first dose ([1]; Low dose 1.8 mg, N = 74): 47 (63.5%); Patients with >=20% improvement in target joint pain score at 24 hours post first dose ([1]; Low dose 1.8 mg, N = 74): 45 (60.8%); Patients with >=30% improvement in target joint pain score at 24 hours post first dose ([1]; Low dose 1.8 mg, N = 74): 39 (52.7%); Patients with >=40% improvement in target joint pain score at 24 hours post first dose ([1]; Low dose 1.8 mg, N = 74): 36 (48.6%); Patients with >=50% improvement in target joint pain score at 24 hours post first dose ([1]; Low dose 1.8 mg, N = 74): 30 (40.5%); Patients with >=60% improvement in target joint pain score at 24 hours post first dose ([1]; Low dose 1.8 mg, N = 74): 24 (32.4%); Patients with >=70% improvement in target joint pain score at 24 hours post first dose ([1]; Low dose 1.8 mg, N = 74): 20 (27.0%); Patients with >=80% improvement in target joint pain score at 24 hours post first dose ([1]; Low dose 1.8 mg, N = 74): 15 (20.3%); Patients with >=90% improvement in target joint pain score at 24 hours post first dose ([1]; Low dose 1.8 mg, N = 74): 9 (12.2%); Patients with >=100% improvement in target joint pain score at 24 hours post first dose ([1]; Low dose 1.8 mg, N = 74): 8 (10.8%); Patients achieving at least 40% relief at 24 hrs post-first dose, regardless of pain rescue (FIG. 1) ([1]; low dose 1.8 mg): 49%; Proportion of patients rescued prior to 24 hours ([1]; low dose 1.8 mg): 28.4%; Proportion of patients with ≧50% pain reduction at 24 hrs without pain rescue ([1]; low dose 1.8 mg): 37.8%; Proportion of patients rescued prior to 24 hours ([1]; standard dose 4.8 mg): 34.6%; Proportion of patients with ≧50% pain reduction at 24 hrs without pain rescue ([1]; standard dose 4.8 mg): 32.7%; Cmax ([2]; MEAN, standard-dose regimen 4.8 mg over 6 hours, healthy adults, N = 15): 6.8 ng/mL; Cmax ([2]; MEDIAN, standard-dose regimen 4.8 mg over 6 hours, healthy adults, N = 15): 6.69 ng/mL; Tmax ([2]; MEAN, standard-dose regimen 4.8 mg over 6 hours, time after the initial dose, healthy adults, N = 15): ~4.5 h; Tmax ([2]; MEDIAN, standard-dose regimen 4.8 mg over 6 hours, time after the initial dose, healthy adults, N = 15): 3.12 h; half-life ([2]; t1/2, MEAN, standard-dose regimen 4.8 mg over 6 hours, healthy adults, N = 15): 31.4 h; half-life ([2]; t1/2, MEDIAN, standard-dose regimen 4.8 mg over 6 hours, healthy adults, N = 15): 32.8 h; CL/F, MAX [2, 3]: 78287.41 mL/h; CL/F, MEAN [2, 3]: 43168.87 mL/h; CL/F, MEDIAN [2, 3]: 37954.71 mL/h; CL/F, MIN [2, 3]: 31386.01 mL/h; Cmax, MAX [2, 3]: 8.60 ng/mL; Cmax, MEAN [2, 3]: 6.84 ng/mL; Cmax, MIN [2, 3]: 4.95 ng/mL; Kel, MAX [2, 3]: 0.0461 h⁻¹; Kel, MEAN [2, 3]: 0.0242 h⁻¹; Kel, MEDIAN [2, 3]: 0.0212 h⁻¹; Kel, MIN [2, 3]: 0.0147 h⁻¹; Total AUC0-t, MAX [2, 3]: 138.24 ng·h/mL; Total AUC0-t, MEAN [2, 3]: 104.95 ng·h/mL; Total AUC0-t, MEDIAN [2, 3]: 113.12 ng·h/mL; Total AUC0-t, MIN [2, 3]: 53.74 ng·h/mL; Total AUC∞, MAX [2, 3]: 152.93 ng·h/mL; Total AUC∞, MEAN [2, 3]: 118.20 ng·h/mL; Total AUC∞, MEDIAN [2, 3]: 126.47 ng·h/mL; Total AUC∞, MIN [2, 3]: 61.31 ng·h/mL; Varea/F, MAX [2, 3]: 2639.21 L; Varea/F, MEAN [2, 3]: 1876.09 L; Varea/F, MEDIAN [2, 3]: 1902.14 L; Varea/F, MIN [2, 3]: 805.92 L; t1/2, MAX [2, 3]: 47.22 h; t1/2, MIN [2, 3]: 15.03 h; Tmax, MAX [2, 4]: 7.50 h; Tmax, MEAN [2, 4]: 4.47 h; Subjects with a secondary peak within 6 hours ([2]; standard-dose regimen 4.8 mg, 13 of 15 subjects): 87%
